For assay [1], the target named is Cyclin-dependent kinase 1/cyclin B (Homo sapiens) (UniProt P06493+P14635+Q8WWL7+O95067). Nature of the assay: CDK1/cyclinB(h) Eurofins Kinase panel. It is filed as protein-complex assay. As to conditions: Compound concentration 1.0 uM.
Assay [2] deals with Eukaryotic translation initiation factor 2-alpha kinase 3 (Homo sapiens) (UniProt Q9NZJ5). Nature of the assay: PEK(h) Eurofins Kinase panel. Conditions: Compound concentration 1.0 uM.
Assay [3] deals with Serine/threonine-protein kinase PAK 6 (Homo sapiens) (UniProt Q9NQU5). Nature of the assay: PAK6(h) Eurofins Kinase panel. Conditions: Compound concentration 1.0 uM.
Serine/threonine-protein kinase PAK 6 (Homo sapiens), sequence (Q9NQU5 whole entry, looked up): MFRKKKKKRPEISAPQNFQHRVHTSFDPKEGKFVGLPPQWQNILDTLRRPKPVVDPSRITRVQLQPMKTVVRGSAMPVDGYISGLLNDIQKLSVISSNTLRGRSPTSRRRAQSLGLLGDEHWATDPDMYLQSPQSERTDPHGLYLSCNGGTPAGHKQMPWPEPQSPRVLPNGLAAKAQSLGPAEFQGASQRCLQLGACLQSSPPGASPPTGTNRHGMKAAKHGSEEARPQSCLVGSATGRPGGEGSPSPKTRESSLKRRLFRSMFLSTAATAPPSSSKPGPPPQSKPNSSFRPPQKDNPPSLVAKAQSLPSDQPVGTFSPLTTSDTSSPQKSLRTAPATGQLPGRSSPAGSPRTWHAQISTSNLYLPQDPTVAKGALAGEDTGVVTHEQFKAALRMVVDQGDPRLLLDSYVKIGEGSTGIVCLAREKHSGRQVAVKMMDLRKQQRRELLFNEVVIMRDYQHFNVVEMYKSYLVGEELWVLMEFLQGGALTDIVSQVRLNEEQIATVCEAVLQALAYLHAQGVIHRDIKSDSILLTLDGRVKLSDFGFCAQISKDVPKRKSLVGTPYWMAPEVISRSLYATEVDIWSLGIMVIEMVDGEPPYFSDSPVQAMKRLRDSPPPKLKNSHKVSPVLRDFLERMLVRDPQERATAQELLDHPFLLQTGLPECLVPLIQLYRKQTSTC
In assay [4] the target is T1, Alpha-1A adrenergic receptor (Homo sapiens) (UniProt P35348).
T1 sequence (whole entry): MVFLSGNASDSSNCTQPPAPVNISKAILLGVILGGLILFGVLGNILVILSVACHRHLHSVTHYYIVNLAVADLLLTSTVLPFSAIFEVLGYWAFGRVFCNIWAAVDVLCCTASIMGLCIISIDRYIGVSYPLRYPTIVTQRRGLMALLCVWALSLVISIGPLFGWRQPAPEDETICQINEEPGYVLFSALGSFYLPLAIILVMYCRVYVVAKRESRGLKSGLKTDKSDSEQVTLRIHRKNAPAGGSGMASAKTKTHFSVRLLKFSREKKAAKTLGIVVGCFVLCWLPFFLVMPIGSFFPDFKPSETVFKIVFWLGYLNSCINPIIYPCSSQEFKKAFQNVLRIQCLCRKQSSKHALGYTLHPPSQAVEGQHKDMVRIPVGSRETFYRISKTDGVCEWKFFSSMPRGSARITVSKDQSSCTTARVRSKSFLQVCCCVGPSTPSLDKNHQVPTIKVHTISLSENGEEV
Conditions: Rattus norvegicus; Compound concentration 10.0 uM.

The next assay is filed under the species Rattus norvegicus. Conditions: Compound concentration 10.0 uM.
The target in assay [5] is Sodium-dependent noradrenaline transporter (Homo sapiens, UniProt P23975). As to conditions: Compound concentration 10.0 uM.
Sodium-dependent noradrenaline transporter, sequence (P23975 whole entry): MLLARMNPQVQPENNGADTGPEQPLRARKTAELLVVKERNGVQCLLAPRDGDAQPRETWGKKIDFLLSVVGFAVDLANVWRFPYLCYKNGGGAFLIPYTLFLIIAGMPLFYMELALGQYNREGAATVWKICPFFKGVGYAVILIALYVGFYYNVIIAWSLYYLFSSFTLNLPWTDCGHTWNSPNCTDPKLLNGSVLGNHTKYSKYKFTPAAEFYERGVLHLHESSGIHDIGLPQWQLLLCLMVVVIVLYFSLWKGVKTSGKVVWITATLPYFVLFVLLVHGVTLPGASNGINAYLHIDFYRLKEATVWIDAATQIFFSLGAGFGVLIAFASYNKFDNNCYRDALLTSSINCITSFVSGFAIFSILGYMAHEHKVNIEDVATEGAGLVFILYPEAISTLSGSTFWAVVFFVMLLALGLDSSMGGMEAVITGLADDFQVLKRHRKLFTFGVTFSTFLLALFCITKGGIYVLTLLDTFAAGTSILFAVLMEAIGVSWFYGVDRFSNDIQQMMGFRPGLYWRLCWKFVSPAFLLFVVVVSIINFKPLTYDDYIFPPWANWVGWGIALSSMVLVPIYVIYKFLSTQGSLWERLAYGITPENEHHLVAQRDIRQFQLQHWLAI
Assay [6] concerns the target T2, 5-hydroxytryptamine receptor 2C (Homo sapiens) (UniProt P28335).
T2 sequence (whole entry): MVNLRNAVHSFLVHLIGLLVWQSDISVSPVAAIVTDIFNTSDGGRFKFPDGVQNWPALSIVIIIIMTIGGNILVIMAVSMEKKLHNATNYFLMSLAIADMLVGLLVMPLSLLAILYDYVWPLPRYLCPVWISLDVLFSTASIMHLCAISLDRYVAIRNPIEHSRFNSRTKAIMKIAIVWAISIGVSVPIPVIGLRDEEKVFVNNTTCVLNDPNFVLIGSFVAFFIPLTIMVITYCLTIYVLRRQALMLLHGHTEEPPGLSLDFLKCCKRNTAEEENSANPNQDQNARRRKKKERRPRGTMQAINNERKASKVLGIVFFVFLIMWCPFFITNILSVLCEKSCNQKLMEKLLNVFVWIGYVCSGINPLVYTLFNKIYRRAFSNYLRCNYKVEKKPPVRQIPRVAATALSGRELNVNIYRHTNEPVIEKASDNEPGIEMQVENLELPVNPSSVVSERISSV
As to conditions: Compound concentration 10.0 uM.

The target of assay [7] is Sodium-dependent serotonin transporter (Homo sapiens, UniProt P31645). Nature of the assay: GPCRScan assay: inhibition of SERT. Also on record: radioligand conc. used [nm] 1.5 – 2.0, parental cells stable HEK.
Sodium-dependent serotonin transporter, sequence (P31645 whole entry): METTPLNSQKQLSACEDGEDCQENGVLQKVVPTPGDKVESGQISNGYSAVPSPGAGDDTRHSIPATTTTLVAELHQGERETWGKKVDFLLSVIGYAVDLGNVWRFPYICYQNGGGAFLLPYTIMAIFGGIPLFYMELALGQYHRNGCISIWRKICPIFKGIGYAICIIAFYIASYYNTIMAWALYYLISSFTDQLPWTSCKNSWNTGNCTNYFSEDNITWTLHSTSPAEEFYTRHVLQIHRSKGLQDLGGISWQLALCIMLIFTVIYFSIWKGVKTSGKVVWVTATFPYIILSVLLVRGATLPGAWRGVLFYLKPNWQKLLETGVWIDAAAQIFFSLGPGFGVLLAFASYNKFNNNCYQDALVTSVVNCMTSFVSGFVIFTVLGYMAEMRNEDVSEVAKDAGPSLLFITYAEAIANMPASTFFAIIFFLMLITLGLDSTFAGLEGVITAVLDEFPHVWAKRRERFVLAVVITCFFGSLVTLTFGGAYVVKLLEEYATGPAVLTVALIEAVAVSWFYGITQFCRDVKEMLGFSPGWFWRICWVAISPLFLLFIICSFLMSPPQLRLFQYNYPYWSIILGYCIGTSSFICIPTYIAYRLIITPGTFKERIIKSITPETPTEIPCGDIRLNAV
The target in the next assay is Mu-type opioid receptor (Homo sapiens, UniProt P35372). Nature of the assay: GPCRScan assay: inhibition of MOR. Also on record: radioligand conc. used [nm] 1.0 – 2.0, parental cells stable HEK.
Mu-type opioid receptor, sequence (P35372 whole entry): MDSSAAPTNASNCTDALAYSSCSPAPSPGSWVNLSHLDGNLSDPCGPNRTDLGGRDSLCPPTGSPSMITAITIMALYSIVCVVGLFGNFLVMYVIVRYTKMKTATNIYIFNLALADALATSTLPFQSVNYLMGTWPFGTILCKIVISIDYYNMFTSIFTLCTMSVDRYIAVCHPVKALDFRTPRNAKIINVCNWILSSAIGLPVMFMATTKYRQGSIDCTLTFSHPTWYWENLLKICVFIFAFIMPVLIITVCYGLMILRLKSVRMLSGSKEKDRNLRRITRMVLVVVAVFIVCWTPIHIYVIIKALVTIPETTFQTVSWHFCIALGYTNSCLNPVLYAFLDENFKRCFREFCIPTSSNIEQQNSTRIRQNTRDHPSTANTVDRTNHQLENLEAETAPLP
A further assay addresses Histamine H4 receptor (Homo sapiens, UniProt Q9H3N8). Nature of the assay: GPCRScan assay: inhibition of H4. Also on record: radioligand conc. used [nm] 1.0 – 5.0, parental cells HEK T.

Histamine H4 receptor, sequence (Q9H3N8 whole entry): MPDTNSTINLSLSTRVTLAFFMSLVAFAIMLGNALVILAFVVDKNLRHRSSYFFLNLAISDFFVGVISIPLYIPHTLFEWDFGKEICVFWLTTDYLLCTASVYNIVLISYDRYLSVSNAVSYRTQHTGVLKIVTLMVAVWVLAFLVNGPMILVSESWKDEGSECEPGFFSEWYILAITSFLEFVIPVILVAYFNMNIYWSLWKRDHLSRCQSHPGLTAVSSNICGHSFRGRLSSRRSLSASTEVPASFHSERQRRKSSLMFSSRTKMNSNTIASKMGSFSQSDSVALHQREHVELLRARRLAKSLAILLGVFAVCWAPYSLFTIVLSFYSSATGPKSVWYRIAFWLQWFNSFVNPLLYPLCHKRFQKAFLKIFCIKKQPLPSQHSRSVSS
Eukaryotic translation initiation factor 2-alpha kinase 3 (Homo sapiens), sequence (Q9NZJ5 whole entry): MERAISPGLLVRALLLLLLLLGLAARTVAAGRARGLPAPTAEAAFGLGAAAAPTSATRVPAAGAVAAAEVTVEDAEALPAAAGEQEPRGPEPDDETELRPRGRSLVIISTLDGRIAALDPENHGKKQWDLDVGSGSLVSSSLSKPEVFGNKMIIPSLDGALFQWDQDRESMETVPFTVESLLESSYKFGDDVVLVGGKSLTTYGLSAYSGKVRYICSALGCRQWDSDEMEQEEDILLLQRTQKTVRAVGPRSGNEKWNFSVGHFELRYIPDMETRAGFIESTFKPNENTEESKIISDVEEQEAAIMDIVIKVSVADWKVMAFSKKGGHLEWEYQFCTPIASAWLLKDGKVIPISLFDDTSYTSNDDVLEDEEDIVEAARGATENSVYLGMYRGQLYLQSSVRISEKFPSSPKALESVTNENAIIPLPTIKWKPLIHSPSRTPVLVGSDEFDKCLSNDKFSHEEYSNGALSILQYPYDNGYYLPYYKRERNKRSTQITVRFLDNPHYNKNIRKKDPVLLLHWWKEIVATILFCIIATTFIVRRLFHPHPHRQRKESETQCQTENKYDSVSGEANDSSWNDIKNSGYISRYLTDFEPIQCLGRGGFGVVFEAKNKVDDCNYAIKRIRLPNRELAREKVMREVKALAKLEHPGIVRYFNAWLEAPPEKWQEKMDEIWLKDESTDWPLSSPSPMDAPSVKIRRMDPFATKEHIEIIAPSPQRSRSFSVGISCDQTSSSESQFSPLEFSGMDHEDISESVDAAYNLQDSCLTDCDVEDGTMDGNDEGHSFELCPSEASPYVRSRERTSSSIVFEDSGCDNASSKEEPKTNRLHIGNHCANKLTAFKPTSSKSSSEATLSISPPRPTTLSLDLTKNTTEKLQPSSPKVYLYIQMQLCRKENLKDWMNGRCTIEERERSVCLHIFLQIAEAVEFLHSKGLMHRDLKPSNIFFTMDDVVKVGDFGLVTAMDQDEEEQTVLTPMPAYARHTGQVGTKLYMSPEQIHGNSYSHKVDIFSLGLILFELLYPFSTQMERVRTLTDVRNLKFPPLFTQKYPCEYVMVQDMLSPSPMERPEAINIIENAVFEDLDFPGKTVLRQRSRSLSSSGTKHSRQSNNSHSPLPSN

For orientation: inhibition means the change of the read-out against control, counted positive when it falls. With `CNCc1ccccc1-c1csc([C@@H](C)Nc2nc(C)nc3cc(OC)c(OC)cc23)c1` [BAY-293], the % residual kinase activity was 87% in assay [1], 87% in assay [2] and 88% in assay [3]. The inhibition in [4] is 106%; in the assay listed under Rattus norvegicus, 71%; in assay [5] it was 86%; in [6], 104%.

Consider `CNCc1ccccc1-c1csc([C@H](C)Nc2nc(C)nc3cc(OC)c(OC)cc23)c1` [BAY-294], for which the Ki in [7] was 4230 nM; on Mu-type opioid receptor (read-out: Ki), 854 nM; on Mu-type opioid receptor (read-out: pKi (converted)) it was 759 nM; at Histamine H4 receptor it was 1890 nM.

The values above are taken from ChEMBL document CHEMBL4507273 (2021).
